Assay results: ChEMBL document CHEMBL1201862, “PubChem BioAssay data set” (2004)
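Growth conditions: 96-well plates. Treatment: test compound, 48 hours, 5 concentrations. Analysis: linear interpolation between bracketing concentrations; unreached endpoints set to highest concentration. At the GI50, growth is halved.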 The source made the active and inactive calls. Cut-off read from the data, not from the text of the source: active = GI50 up to about 1.1 µM and inactive = higher.

Tests used:
Assay in all cases: NCI anticancer screen, dose series, 48 h
U-251 = tested on: U-251
SK-OV-3 = tested on: SK-OV-3
SK-MEL-5 = tested on: SK-MEL-5
SNB-75 = tested on: SNB-75
SF-268 = tested on: SF-268
HL-60 = tested on: HL-60
UO-31 = tested on: UO-31
SN12C = tested on: SN12C
HCT-15 = tested on: HCT-15
786-0 = tested on: 786-0
OVCAR-8 = tested on: OVCAR-8
OVCAR-4 = tested on: OVCAR-4
SF-539 = tested on: SF-539
MDA-N = tested on: MDA-N
K562 = tested on: K562
EKVX = tested on: EKVX
LOX IMVI = tested on: LOX IMVI
PC-3 = tested on: PC-3
HT-29 = tested on: HT-29
SW-620 = tested on: SW-620
CAKI-1 = tested on: CAKI-1
HCT-116 = tested on: HCT-116
HOP-92 = tested on: HOP-92
SF-295 = tested on: SF-295
M14 = tested on: M14
SR = tested on: SR
MDA-MB-435 = tested on: MDA-MB-435
BT-549 = tested on: BT-549
SK-MEL-2 = tested on: SK-MEL-2
KM12 = tested on: KM12
ACHN = tested on: ACHN
HOP-62 = tested on: HOP-62
NCI-H460 = tested on: NCI-H460
RXF 393 = tested on: RXF 393
Malme-3M = tested on: Malme-3M
OVCAR-5 = tested on: OVCAR-5
UACC-257 = tested on: UACC-257
NCI-H522 = tested on: NCI-H522
UACC-62 = tested on: UACC-62
SK-MEL-28 = tested on: SK-MEL-28
T47D = tested on: T47D
MOLT-4 = tested on: MOLT-4
COLO 205 = tested on: COLO 205
IGROV-1 = tested on: IGROV-1
MDA-MB-231 = tested on: MDA-MB-231
SNB-19 = tested on: SNB-19
Hs-578T = tested on: Hs-578T
TK-10 = tested on: TK-10
A549 = tested on: A549
MCF7 = tested on: MCF7
NCI-H226 = tested on: NCI-H226
NCI/ADR-RES = tested on: NCI/ADR-RES
HCC 2998 = tested on: HCC 2998
NCI-H23 = tested on: NCI-H23
RPMI-8226 = tested on: RPMI-8226
A498 = tested on: A498
OVCAR-3 = tested on: OVCAR-3
CCRF-CEM = tested on: CCRF-CEM
DU-145 = tested on: DU-145

Measured: GI50

COc1ccc2c(c1)CN1C(=N2)CSC1c1cccc(Br)c1 (configuration not stated)
11 µM: HCT-15
inactive: U-251 26.5 µM | SK-OV-3 > 100 µM | SK-MEL-5 5.71 µM | SNB-75 14.9 µM | SF-268 52.8 µM | HL-60 3.58 µM | UO-31 17.5 µM | SN12C 20.4 µM | 786-0 17.8 µM | OVCAR-8 69.8 µM | OVCAR-4 36.9 µM | SF-539 15.4 µM | MDA-N 4.1 µM | K562 5.89 µM | EKVX 22.1 µM | LOX IMVI 23.9 µM | PC-3 17.7 µM | HT-29 20 µM | SW-620 15.8 µM | CAKI-1 16.3 µM | HCT-116 19 µM | HOP-92 8.61 µM | SF-295 30.5 µM | M14 52.1 µM | SR 5.33 µM | MDA-MB-435 6.15 µM | BT-549 26.2 µM | SK-MEL-2 24.2 µM | KM12 19.1 µM | ACHN 19.8 µM | HOP-62 46.8 µM | NCI-H460 30.1 µM | RXF 393 19.9 µM | Malme-3M 60.1 µM | OVCAR-5 > 100 µM | UACC-257 20.3 µM | NCI-H522 22.6 µM | UACC-62 17.8 µM | SK-MEL-28 11.9 µM | T47D 52.7 µM | MOLT-4 6.82 µM | COLO 205 31.7 µM | IGROV-1 43.9 µM | MDA-MB-231 > 100 µM | SNB-19 47.3 µM | Hs-578T 53.6 µM | TK-10 59.8 µM | A549 30.6 µM | MCF7 10.6 µM | NCI-H226 4.86 µM | NCI/ADR-RES 48.8 µM | HCC 2998 14.8 µM | NCI-H23 17.7 µM | RPMI-8226 6.44 µM

COc1cc(S(=O)(=O)Nc2ccc(-c3csc(/N=C\C=C\c4ccccc4)n3)cc2)ccc1Cl
active: NCI-H460 0.0484 µM
inactive: SK-OV-3 > 100 µM | SK-MEL-5 38.3 µM | SNB-75 > 100 µM | SF-268 29.9 µM | HL-60 43.3 µM | UO-31 44.5 µM | SN12C > 100 µM | 786-0 > 100 µM | OVCAR-8 34.8 µM | OVCAR-4 28.5 µM | SF-539 22 µM | MDA-N > 100 µM | K562 31.2 µM | EKVX 36.9 µM | LOX IMVI 29.6 µM | PC-3 19.9 µM | A498 20.6 µM | HT-29 > 100 µM | OVCAR-3 > 100 µM | SW-620 > 100 µM | CAKI-1 > 100 µM | HCT-116 46.8 µM | HOP-92 22.8 µM | CCRF-CEM 17.5 µM | SF-295 74.5 µM | M14 29.9 µM | SR 32.5 µM | MDA-MB-435 > 100 µM | DU-145 45.5 µM | BT-549 39.1 µM | SK-MEL-2 26 µM | KM12 84.5 µM | ACHN 41.2 µM | HOP-62 43 µM | RXF 393 16.1 µM | Malme-3M 37.4 µM | OVCAR-5 > 100 µM | UACC-257 7.76 µM | NCI-H522 24.5 µM | UACC-62 37.9 µM | SK-MEL-28 > 100 µM | T47D 26.6 µM | MOLT-4 38.1 µM | COLO 205 36.7 µM | IGROV-1 39.4 µM | SNB-19 84.3 µM | Hs-578T 87.3 µM | TK-10 42.2 µM | A549 80.5 µM | MCF7 36.1 µM | NCI-H226 24.2 µM | NCI/ADR-RES 59 µM | HCC 2998 > 100 µM | NCI-H23 30.9 µM | RPMI-8226 27.3 µM
50 µM: HCT-15
